Results from patent US20230075925A1, “NON-PERIPHERAL QUATERNARY AMMONIUM-MODIFIED ZINC PHTHALOCYANINE AND PREPARATION METHOD AND USE THEREOF” (FUZHOU UNIVERSITY, priority 2020, published 2023).

How the values were obtained:
[1] = test system: melanoma cells B16-F10 tumors (proximal and distal); experiment: PDT / anti-PD-L1 combination therapy in bilateral B16-F10 tumor-bearing mouse model (tumor inhibition rate); assay type: in vivo; settings: for tumor inhibition rate on proximal tumors (illuminated tumors): PDT group (phthalocyanine+illumination), 100 μL of 200 μM, 685 nm 15 mW/cm^2 5 min, 14 days
Experimental: A bilateral tumor-bearing mouse model of melanoma cells B16-F10 (proximal and distal) was established. During PDT, the proximal referred to an illuminated side, and the distal referred to a non-illuminated side. The distribution and metabolism of photosensitizers in the tumor-bearing mouse were investigated by a small animal fluorescence imager and a tissue extraction method, and PDT was conducted under optimal conditions. The following 5 groups of experiments were set up, with 5 mice in each group: a PBS control group; an anti-PD-L1 antibody treatment group; a simple phthalocyanine (no illumination) treatment group; a phthalocyanine+illumination treatment group, namely a PDT group; and a phthalocyanine+illumination+anti-PD-L1 antibody treatment group, namely a combination therapy group. The anti-PD-L1 antibody was purchased from BioX cell.
In the combination therapy group, the PDT group and the simple photosensitizer group, 100 μL of a phthalocyanine compound (at a concentration of 200 μM, diluted with 0.5% CEL) was administered to each mouse. The combination therapy group and the PDT group were irradiated by a laser with a wavelength of 685 nm (at an irradiation power of 15 mW/cm^2 for 5 min) on the right tumor (proximal tumor) 8 h to 12 h after the administration. The combination therapy group was administered at 50 μg of PD-L1 antibody/mouse immediately after laser treatment, and the antibody group was administered 50 μg of PD-L1 antibody/mouse at the same time. One treatment was given on the first and fourth day separately.
From the first treatment, a body weight and a tumor volume of all mice were measured every other day, and a tumor size was calculated according to a formula: tumor volume=tumor length×width×height×π/6; after 14 consecutive days of observation, a tumor inhibition rate of each experimental group was calculated.

[2] = test system: human cervical cancer cells Hela; experiment: Dark toxicity and photodynamic activity on Hela cells (MTT cell viability); assay type: cell-based; settings: 4 μM
Experimental: The non-peripheral quaternary ammonium-modified zinc phthalocyanine prepared in Example 1 was dissolved in a 1% castor oil derivative (Cremophor EL, wt %) aqueous solution to prepare a 0.1 mM photosensitizer. The dark toxicity and photodynamic activity of the photosensitizer were tested on human cervical cancer cells Hela.
0.1 mM or 0.2 mM of the photosensitizer was diluted into a cell medium to prepare a cell medium containing zinc phthalocyanine complexes at different concentrations. The cancer cells were cultured in the medium containing different concentrations of zinc phthalocyanine complexes for 2 h; after staining, the medium was discarded; and after washing with PBS, the cells were added into a new medium (without zinc phthalocyanine complexes). Illumination experiment group: the cells were irradiated with red light for 30 min at a power of irradiated light at 15 mW cm^−2 using red light with a wavelength greater than 600 nm as an excitation light source; non-illumination control group: the cells were placed in the dark for 30 min. After illumination or non-illumination, a cell viability was examined by MTT. The specific experimental steps referred to “Bioorganic & Medicinal Chemistry Letters, 2006, 16, 2450-2453”. […]

B16-F10 cells = experiment: Tumor recurrence (immune memory) after re-injection of B16-F10 cells following combination therapy; assay type: in vivo, ICR mouse; settings: combination with PD-L1 antibody; 1×10^6 B16-F10 cells injected on 7th day after therapy, observed 21 d, 5 mice
Excerpt: More importantly, the mice treated with a combination of the zinc phthalocyanine in Example 1 and the PD-L1 antibody have an immune memory effect, which can effectively prevent tumor recurrence. On a 7th day after the combination therapy of zinc phthalocyanine in Example 1 and PD-L1 antibody, 1×10^6 B16-F10 cells were subcutaneously injected into a left ventral side of each ICR mouse (5 mice in each group), and the mice were continued to be observed for 21 d. […] However, the mice in remaining control groups are observed to have obvious melanoma regrowth, and no ability is observed to prevent tumor recurrence.

Compound	tumor inhibition rate on proximal tumors (illuminated tumors) [1]	cancer cells killed under red light irradiation ([2]; red light 15 mW cm^−2 for 30 min)	dark toxicity (killing and growth inhibition of Hela cells without irradiation) ([2]; without irradiation, 2 h incubation)	tumor inhibition rate on distal tumors (unilluminated tumors) ([1]; combination therapy group: phthalocyanine+illumination+anti-PD-L1 antibody (50 μg/mouse))	effect on in situ tumors ([1]; combined with immune checkpoint blocker PD-L1 antibody)	effective rate in preventing recurrence (B16-F10 cells)
1-[4-(aminoethyl)phenoxy] zinc phthalocyanine [Comparative Example 1, reference compound]	69%	–	–	–	–	–
C[N+](C)(C)CCc1ccc(Oc2cccc3c4nc5nc(nc6nc(nc7[n-]c(nc([n-]4)c23)c2ccccc72)-c2ccccc2-6)-c2ccccc2-5)cc1.[I-].[Zn+2] [Example 1, 1-[4-(N,N,N-trimethyl-2-aminoethyl)phenoxy] zinc phthalocyanine iodide]	51%	100%	no dark toxicity	90%	completely remove in situ tumors	80%
